Test results taken from PubChem BioAssay AID1963961 (Molecular Pharmacology Branch, DTP, NCI, 2024).

Test system: K98450-129-R-PDC multicell spheroids, viability
Assay: Anticancer human tumor K98450-129-R-PDC patient-derived colon adenocarcinoma cell line growth inhibition [PI3K]
Conditions: for IC50: curve of first compound; for viability, T/C: stronger effect = lower value
Summary of the method: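 Targeted small molecules plus PI3K inhibitors, half-log dose series from Cmax (default top 10 microM), were applied to heterotypic spheroids of cancer cells with HUVEC and MSCs. Viability indicated growth inhibition.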

[1] = second compound 0.00316 µM, first compound 0.0316 µM
[2] = second compound 0.00316 µM, first compound 0.1 µM
[3] = second compound 0.00316 µM, first compound 0.316 µM
[4] = second compound 0.00316 µM, first compound 1 µM
[5] = second compound 0.00316 µM, first compound 3.16 µM
[6] = second compound 0.00316 µM, first compound 10 µM
[7] = second compound 0.01 µM, first compound 0.0316 µM
[8] = second compound 0.01 µM, first compound 0.1 µM
[9] = second compound 0.01 µM, first compound 0.316 µM
[10] = second compound 0.01 µM, first compound 1 µM
[11] = second compound 0.01 µM, first compound 3.16 µM
[12] = second compound 0.01 µM, first compound 10 µM
[13] = second compound 0.0316 µM, first compound 0.0316 µM
[14] = second compound 0.0316 µM, first compound 0.1 µM
[15] = second compound 0.0316 µM, first compound 0.316 µM
[16] = second compound 0.0316 µM, first compound 1 µM
[17] = second compound 0.0316 µM, first compound 3.16 µM
[18] = second compound 0.0316 µM, first compound 10 µM
[19] = second compound 0.1 µM, first compound 0.0316 µM
[20] = second compound 0.1 µM, first compound 0.1 µM
[21] = second compound 0.1 µM, first compound 0.316 µM
[22] = second compound 0.1 µM, first compound 1 µM
[23] = second compound 0.1 µM, first compound 3.16 µM
[24] = second compound 0.1 µM, first compound 10 µM
[25] = second compound 0.316 µM, first compound 0.0316 µM
[26] = second compound 0.316 µM, first compound 0.1 µM
[27] = second compound 0.316 µM, first compound 0.316 µM
[28] = second compound 0.316 µM, first compound 1 µM
[29] = second compound 0.316 µM, first compound 3.16 µM
[30] = second compound 0.316 µM, first compound 10 µM
[31] = second compound 1 µM, first compound 0.0316 µM
[32] = second compound 1 µM, first compound 0.1 µM
[33] = second compound 1 µM, first compound 0.316 µM
[34] = second compound 1 µM, first compound 1 µM
[35] = second compound 1 µM, first compound 3.16 µM
[36] = second compound 1 µM, first compound 10 µM
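Also: spheroids exposed to agents for seven days before read-out.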

Structure (SMILES): Cn1ncc(Cl)c1-c1cc(C(=O)NC(CN)Cc2cccc(F)c2)sc1Cl (stereo not drawn) + CC(Nc1ccc2c(c1)OCCn1cc(N3C(=O)OCC3C(F)F)nc1-2)C(N)=O
- IC50 (second compound 0.00316 µM): > 10 µM
- IC50 (second compound 0.01 µM): > 10 µM
- IC50 (second compound 0.0316 µM): > 10 µM
- IC50 (second compound 0.1 µM): > 10 µM
- IC50 (second compound 0.316 µM): > 10 µM
- IC50 (second compound 1 µM): > 10 µM
- viability, T/C [1]: 106%
- viability, T/C [2]: 98.2%
- viability, T/C [3]: 105%
- viability, T/C [4]: 95.3%
- viability, T/C [5]: 93.6%
- viability, T/C [6]: 97.2%
- viability, T/C [7]: 109%
- viability, T/C [8]: 102%
- viability, T/C [9]: 110%
- viability, T/C [10]: 95.9%
- viability, T/C [11]: 97.6%
- viability, T/C [12]: 102%
- viability, T/C [13]: 109%
- viability, T/C [14]: 109%
- viability, T/C [15]: 99.4%
- viability, T/C [16]: 102%
- viability, T/C [17]: 90.3%
- viability, T/C [18]: 99.3%
- viability, T/C [19]: 88.7%
- viability, T/C [20]: 102%
- viability, T/C [21]: 103%
- viability, T/C [22]: 97.5%
- viability, T/C [23]: 97.1%
- viability, T/C [24]: 95%
- viability, T/C [25]: 85.7%
- viability, T/C [26]: 100%
- viability, T/C [27]: 95.9%
- viability, T/C [28]: 95.6%
- viability, T/C [29]: 98.7%
- viability, T/C [30]: 92.9%
- viability, T/C [31]: 87.1%
- viability, T/C [32]: 85.9%
- viability, T/C [33]: 91.9%
- viability, T/C [34]: 94.4%
- viability, T/C [35]: 91%
- viability, T/C [36]: 85.7%

Structure (SMILES): CCCS(=O)(=O)Nc1ccc(F)c(C(=O)c2c[nH]c3ncc(-c4ccc(Cl)cc4)cc23)c1F + CC(Nc1ccc2c(c1)OCCn1cc(N3C(=O)OCC3C(F)F)nc1-2)C(N)=O
- IC50 (second compound 0.00316 µM): 6.63 µM
- IC50 (second compound 0.01 µM): 6.48 µM
- IC50 (second compound 0.0316 µM): 6.29 µM
- IC50 (second compound 0.1 µM): 6.2 µM
- IC50 (second compound 0.316 µM): 5.98 µM
- IC50 (second compound 1 µM): 5.78 µM
- viability, T/C [1]: 113%
- viability, T/C [2]: 104%
- viability, T/C [3]: 112%
- viability, T/C [4]: 111%
- viability, T/C [5]: 135%
- viability, T/C [6]: 14.1%
- viability, T/C [7]: 117%
- viability, T/C [8]: 110%
- viability, T/C [9]: 114%
- viability, T/C [10]: 105%
- viability, T/C [11]: 148%
- viability, T/C [12]: 8.38%
- viability, T/C [13]: 97%
- viability, T/C [14]: 105%
- viability, T/C [15]: 100%
- viability, T/C [16]: 105%
- viability, T/C [17]: 136%
- viability, T/C [18]: 10.4%
- viability, T/C [19]: 96.5%
- viability, T/C [20]: 102%
- viability, T/C [21]: 97.9%
- viability, T/C [22]: 101%
- viability, T/C [23]: 130%
- viability, T/C [24]: 10.7%
- viability, T/C [25]: 90.6%
- viability, T/C [26]: 93.7%
- viability, T/C [27]: 98.5%
- viability, T/C [28]: 98.4%
- viability, T/C [29]: 113%
- viability, T/C [30]: 10.5%
- viability, T/C [31]: 88.3%
- viability, T/C [32]: 88.8%
- viability, T/C [33]: 91.4%
- viability, T/C [34]: 97%
- viability, T/C [35]: 91.2%
- viability, T/C [36]: 12.5%

Structure (SMILES): Cn1cnc2c(F)c(Nc3ccc(Br)cc3Cl)c(C(=O)NOCCO)cc21 + Cc1nc(NC(=O)N2CCCC2C(N)=O)sc1-c1ccnc(C(C)(C)C(F)(F)F)c1
- IC50 (second compound 0.0316 µM): 1.26 µM
- IC50 (second compound 0.1 µM): 1.03 µM
- IC50 (second compound 0.316 µM): 0.998 µM
- IC50 (second compound 1 µM): 0.694 µM
- IC50 (second compound 3.16 µM): 0.434 µM
- IC50 (second compound 10 µM): 0.165 µM
- viability, T/C (second compound 0.0316 µM, first compound 0.00949 µM): 95.2%
- viability, T/C (second compound 0.0316 µM, first compound 0.03 µM): 87.1%
- viability, T/C (second compound 0.0316 µM, first compound 0.0949 µM): 91.9%
- viability, T/C (second compound 0.0316 µM, first compound 0.3 µM): 78.3%
- viability, T/C (second compound 0.0316 µM, first compound 0.949 µM): 61.2%
- viability, T/C (second compound 0.0316 µM, first compound 3 µM): 17.2%
- viability, T/C (second compound 0.1 µM, first compound 0.00949 µM): 107%
- viability, T/C (second compound 0.1 µM, first compound 0.03 µM): 89.1%
- viability, T/C (second compound 0.1 µM, first compound 0.0949 µM): 84.7%
- viability, T/C (second compound 0.1 µM, first compound 0.3 µM): 77%
- viability, T/C (second compound 0.1 µM, first compound 0.949 µM): 54.3%
- viability, T/C (second compound 0.1 µM, first compound 3 µM): 15.6%
- viability, T/C (second compound 0.316 µM, first compound 0.00949 µM): 89%
- viability, T/C (second compound 0.316 µM, first compound 0.03 µM): 89.2%
- viability, T/C (second compound 0.316 µM, first compound 0.0949 µM): 79.1%
- viability, T/C (second compound 0.316 µM, first compound 0.3 µM): 71.2%
- viability, T/C (second compound 0.316 µM, first compound 0.949 µM): 53.5%
- viability, T/C (second compound 0.316 µM, first compound 3 µM): 11.2%
- viability, T/C (second compound 1 µM, first compound 0.00949 µM): 85.3%
- viability, T/C (second compound 1 µM, first compound 0.03 µM): 82.4%
- viability, T/C (second compound 1 µM, first compound 0.0949 µM): 78.9%
- viability, T/C (second compound 1 µM, first compound 0.3 µM): 67.2%
- viability, T/C (second compound 1 µM, first compound 0.949 µM): 43.5%
- viability, T/C (second compound 1 µM, first compound 3 µM): 8.14%
- viability, T/C (second compound 3.16 µM, first compound 0.00949 µM): 76.8%
- viability, T/C (second compound 3.16 µM, first compound 0.03 µM): 74.1%
- viability, T/C (second compound 3.16 µM, first compound 0.0949 µM): 71.3%
- viability, T/C (second compound 3.16 µM, first compound 0.3 µM): 58.5%
- viability, T/C (second compound 3.16 µM, first compound 0.949 µM): 32.1%
- viability, T/C (second compound 3.16 µM, first compound 3 µM): 4.89%
- viability, T/C (second compound 10 µM, first compound 0.00949 µM): 63.1%
- viability, T/C (second compound 10 µM, first compound 0.03 µM): 61.1%
- viability, T/C (second compound 10 µM, first compound 0.0949 µM): 60.3%
- viability, T/C (second compound 10 µM, first compound 0.3 µM): 39.4%
- viability, T/C (second compound 10 µM, first compound 0.949 µM): 10.3%
- viability, T/C (second compound 10 µM, first compound 3 µM): 2.85%

Structure (SMILES): CC(Cn1ccc(-c2ccc(C#N)c(Cl)c2)n1)NC(=O)c1cc(C(C)O)[nH]n1 (stereo not drawn) + CC(Nc1ccc2c(c1)OCCn1cc(N3C(=O)OCC3C(F)F)nc1-2)C(N)=O
- IC50 (second compound 0.00316 µM): > 10 µM
- IC50 (second compound 0.01 µM): > 10 µM
- IC50 (second compound 0.0316 µM): > 10 µM
- IC50 (second compound 0.1 µM): > 10 µM
- IC50 (second compound 0.316 µM): > 10 µM
- IC50 (second compound 1 µM): > 10 µM
- viability, T/C [1]: 111%
- viability, T/C [2]: 99.6%
- viability, T/C [3]: 105%
- viability, T/C [4]: 101%
- viability, T/C [5]: 105%
- viability, T/C [6]: 106%
- viability, T/C [7]: 113%
- viability, T/C [8]: 98.6%
- viability, T/C [9]: 102%
- viability, T/C [10]: 98.4%
- viability, T/C [11]: 101%
- viability, T/C [12]: 111%
- viability, T/C [13]: 102%
- viability, T/C [14]: 109%
- viability, T/C [15]: 101%
- viability, T/C [16]: 96.2%
- viability, T/C [17]: 101%
- viability, T/C [18]: 102%
- viability, T/C [19]: 98.2%
- viability, T/C [20]: 100%
- viability, T/C [21]: 103%
- viability, T/C [22]: 95.2%
- viability, T/C [23]: 109%
- viability, T/C [24]: 95%
- viability, T/C [25]: 92.6%
- viability, T/C [26]: 98%
- viability, T/C [27]: 97.7%
- viability, T/C [28]: 94.1%
- viability, T/C [29]: 104%
- viability, T/C [30]: 91.9%
- viability, T/C [31]: 87.7%
- viability, T/C [32]: 91.6%
- viability, T/C [33]: 91.7%
- viability, T/C [34]: 86.2%
- viability, T/C [35]: 90.4%
- viability, T/C [36]: 92.3%
